The test system of experiment [1] is acetylcholine-induced bladder contraction. Kind of experiment: Action against acetylcholine-induced bladder contraction (intraduodenal). The format is in vivo, SD male rats. To be noted: Rattus norvegicus, 2 h, read-out: Bladder contraction inhibitory action ID50. As for the experimental part: Action against acetylcholine-induced bladder contraction Testing method
SD male rats weighing 230 to 390 g were each fixed on its back under intraperitoneal anesthesia with 500 mg/kg of urethane and 50 mg/kg of α-chloralose. Then, its bladder was exposed by midline abdominal incision. Into the top part of the bladder, a polyethylene tube filled with physiological saline was inserted and intracystic pressure was measured. Into the femoral vein, a venous cannula for administration of a drug was inserted, through which 10 μg/kg of acetylcholine were administered to induce bladder contraction. Then, acetylcholine was administered at intervals of 10 minutes. After the bladder contraction by acetylcholine became stable, the stomach was subjected to midline incision and the test compound was intraduodenally administered using an injection needle.
The bladder contraction was measured as a difference of intracystic pressure before and after the administration of acetylcholine.

The test system of experiment [2] is carbachol-induced hypersialosis. Description: Action against carbachol-induced hypersialosis (salivation, oral). The format is in vivo, SD male rats. To be noted: for ED50: Rattus norvegicus, read-out: Salivation inhibitory action ID50; for Selectivity: bladder over salivation, propiverine hydrochloride = 1.0; for Salivation inhibitory action / Bladder contraction inhibitory action: ratio of ID50 values. As for the experimental part:
Action against carbachol-induced hypersialosis Testing method
A test compound was orally administered to each of SD male rats weighing 100 to 150 g. Thirty minutes later, 0.1 mg/kg of carbachol was intraperitoneally administered. Immediately after the administration of carbachol, the rat was fixed by hands under non-anesthesia and under this condition, the saliva was wiped off with a cotton ball for 10 minutes. The weight of the saliva so obtained was measured.

Where [3] appears, read: SD male rats, intraduodenal, acetylcholine 10 μg/kg i.v., intracystic pressure, observed 120 minutes.
Setting [4] is: SD male rats, oral, 30 minutes before carbachol 0.1 mg/kg i.p., saliva weight over 10 minutes.

Structures can show the parent of a compound that is named as a salt. Where two headings read alike, the source gives them in different places.

With `CCCCOC(C(=O)NC1CCN(Cc2ccccc2)CC1)(c1ccccc1)C(C)C` (centres unmarked) [Compound No. 4, N-(1-benzyl-4-piperidinyl)-2-butoxy-3-methyl-2-phenylbutanamide], in experiment [1] (setting [3]), the ED50 stood at 9.8 mg/kg. The ED50 in experiment [2] (setting [4]) stood at 56.6 mg/kg. In experiment [2], the Selectivity came to 6.2 and the “Salivation inhibitory action / Bladder contraction inhibitory action” value was found to be 5.8.

Regarding `CCN(CC)CC#CCOC(=O)C(O)(c1ccccc1)C1CCCCC1` (centres unmarked) [Oxybutynin hydrochloride, reference compound], in experiment [1], the ED50 turned out to be 3.4 mg/kg. In experiment [2] (po), the ED50 is 3.5 mg/kg. Also, in experiment [2], the Selectivity was found to be 1.1 and the “Salivation inhibitory action / Bladder contraction inhibitory action” value is given as 1.0.

`CCCOC(C(=O)OC1CCN(C)CC1)(c1ccccc1)c1ccccc1` [Propiverine hydrochloride, reference compound]: in experiment [1] (setting [3]), the ED50 was 9.9 mg/kg. Further, in experiment [2] (setting [4]), the ED50 turned out to be 9.2 mg/kg. Further, in experiment [2], the Selectivity stood at 1.0 and the “Salivation inhibitory action / Bladder contraction inhibitory action” value was found to be 0.9.

In the case of `CCCOC(C(=O)NC1CCN(Cc2ccccc2)CC1)(c1ccccc1)C(C)C` (centres unmarked) [compound 3], the results for the ED50 in experiment [1] (setting [3]) and in experiment [2] (setting [4]) were 9.4 mg/kg and 33.9 mg/kg, respectively. For the same molecule, the Selectivity in experiment [2] is on record as 4.0. The “Salivation inhibitory action / Bladder contraction inhibitory action” value in experiment [2] stood at 3.6.

With `CCCOC(C(=O)NC1CCN(Cc2ccccc2)CC1)(c1ccccc1)C1CC1` (centres unmarked) [compound 12], the ED50 was 10 mg/kg in experiment [1] (setting [3]) and 22.5 mg/kg in experiment [2] (setting [4]). In addition, the Selectivity in experiment [2] is listed as 2.4. Also, the “Salivation inhibitory action / Bladder contraction inhibitory action” value in experiment [2] is reported as 2.3.

These data come from patent US6060485A, “Arylacetic amide derivative or salt thereof, and pharmaceutical comprising it” (SSP Co., Ltd., priority 1997, dated 2000).
